One assay deals with MCF-7 cells. The assay is described as follows: In vitro cell activity assay (MCF-7, insulin stimulation, ELISA-One). The assay is classed as cell-based. Particulars: Homo sapiens, MCF7, compound 2 hours in serum-free media, then 10 μg/ml insulin 30 min. How it is done:
Experimental Steps and Method Comprise:
1. MCF-7 cells were seeded at 2,5000 cells per well in a 96 well tissue culture plate in a complete media containing 10%0/FBS.
3. The cells were treated with 10 μg/ml insulin in serum-free media for 30 min.
4. During waiting period, lysis solution was prepared as below:
a) Enhancer Solution needs to be taken out from the refrigerator to be thawed.
b) Concentrated lysis solution was prepared by diluting Enhancer Solution 10-fold in 5× Lysis Buffer.
c) Lysis solution was prepared by diluting concentrated lysis solution 5-fold with ddH2O.
5. Any media were removed from wells and the wells were rinsed with PBS once quickly.
6. 50 μL of freshly prepared lysis solution were added into each well, with shaking at room temperature for 10 min.
7. After confirming that all cells get detached from wells, the lysis solution together with the cell debris was transferred to 1.5 ml tubes.
8. The tubes were vortexed several times to thoroughly mix the lysis solution and cells, and then, and then the mixture was centrifuged at 12,000 g for 10 min at 4° C.;
9. The desired number of ELISA-One microplate strips was determined. Unused strips were removed from frame and returned to storage pouch and seal. Wells for use in the assay were rinsed with 200 μL ddH2O to remove preservatives prior to use.
10. 50 μL of antibody mixture solution was added into each well. (Antibody mixture solution was prepared by mixing capture antibody reagent and detection antibody reagent equally, avoid vortexing)
11. 25 μL of lysate was added into each well of the ELISA-One microplate. The microplate was covered with adhesive seal and incubated for 1 hour at room temperature on a microplate shaker.
12. Each well was washed with 150 μL 1× wash buffer 3 times. After final wash, any remaining wash buffer was removed from wells. If necessary, leave microplate in 1× Wash Buffer for up to 30 min, until substrate mixture solution has been prepared.
13. The substrate mixture solution should be prepared when used, 100 μL of substrate mixture solution was added into each well, and then the microplate was sealed with tin foil and incubated at room temperature for 10 minutes on a microplate shaker.
14. 10 μL of stop solution was added into each well, and then mixed slightly (5-10 seconds) on a microplate shaker.
15. Corresponding ELISA-One filter set was installed to read the fluorescence signal intensity.
(ELISA stands for enzyme-linked immunosorbent assay.)

The target of the next assay is PI3K (p110α) (Homo sapiens, UniProt P42336). In words: In vitro enzyme activity assay, PI3K (p110α) kinase, Method II (ADP-Glo assay). In kind it is biochemical. More on the design: purchased Millipore 14-602-K. Particulars: read-out: PI3K (p110α) enzyme activity_IC50. Here is the method:
PI3K (p110α) kinase activities of the compounds in all the examples of the present invention were tested via the following two methods, respectively.
Dilution of the Compound:
The compound to be tested was diluted with a 3-fold concentration gradient, and 10 concentrations (from 10000 nM to 0.5 nM) were obtained in total.
50 nL of the compound was transferred to a reaction plate (PerkinElmer #6007299) and 3 μL of enzyme/substrate mixture (0.33 nM PI3Kalpha, Millipore #14-602-K/166.5 μM PIP2) was added. After 20 min incubation, 2 uL of ATP solution (100 uM) was added to initiate the reaction. After reacting for 2 hours at room temperature, 5 μL of ADP-Glo reagent was added to terminate the kinase reaction. Then the mixture was incubated at room temperature for 60 min to completely digest the remaining unreacted ATP, 10 uL of kinase detection reagent was added, and after 40 min incubation at room temperature, […] was readed on an Envision. PIP2, ATP, ADP-Glo and the kinase detection reagent were all from ADP-Glo kinase assay kit (Promega #V1792).
IC50 was calculated using standard 4-parameter fit method (Model205, XL-fit, iDBS).
(ADP-Glo turns the ADP formed in a reaction into a luminescent signal.)

PI3K (p110α), sequence (P42336 whole entry): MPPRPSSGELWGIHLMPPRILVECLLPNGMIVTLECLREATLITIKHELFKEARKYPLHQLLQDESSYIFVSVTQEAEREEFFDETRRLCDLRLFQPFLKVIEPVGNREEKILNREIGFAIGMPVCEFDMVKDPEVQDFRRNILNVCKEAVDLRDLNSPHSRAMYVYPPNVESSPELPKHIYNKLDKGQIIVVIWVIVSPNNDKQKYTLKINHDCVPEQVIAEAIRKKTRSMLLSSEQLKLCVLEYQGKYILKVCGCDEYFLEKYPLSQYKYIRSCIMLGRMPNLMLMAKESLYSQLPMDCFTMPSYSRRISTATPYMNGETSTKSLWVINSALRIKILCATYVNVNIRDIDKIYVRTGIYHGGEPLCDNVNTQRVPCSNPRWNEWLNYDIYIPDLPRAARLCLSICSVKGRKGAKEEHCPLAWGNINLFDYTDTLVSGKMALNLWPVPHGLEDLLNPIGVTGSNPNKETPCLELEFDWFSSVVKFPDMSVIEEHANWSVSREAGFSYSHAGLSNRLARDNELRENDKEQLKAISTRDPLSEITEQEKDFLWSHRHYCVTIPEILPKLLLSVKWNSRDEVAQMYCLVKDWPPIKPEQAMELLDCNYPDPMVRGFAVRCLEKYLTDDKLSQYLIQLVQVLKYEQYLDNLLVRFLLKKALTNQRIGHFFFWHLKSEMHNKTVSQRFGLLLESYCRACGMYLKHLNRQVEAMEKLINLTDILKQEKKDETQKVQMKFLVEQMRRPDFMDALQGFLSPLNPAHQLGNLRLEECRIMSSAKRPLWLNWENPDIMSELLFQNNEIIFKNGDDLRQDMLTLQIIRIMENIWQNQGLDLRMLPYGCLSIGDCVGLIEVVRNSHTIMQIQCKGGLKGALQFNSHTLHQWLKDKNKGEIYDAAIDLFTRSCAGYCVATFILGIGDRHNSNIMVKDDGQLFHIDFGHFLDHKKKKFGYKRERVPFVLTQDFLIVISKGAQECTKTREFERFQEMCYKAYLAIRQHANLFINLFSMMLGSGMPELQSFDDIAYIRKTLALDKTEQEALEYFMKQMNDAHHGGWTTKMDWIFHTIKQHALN
PI3K (p110α), sequence (P27986 whole entry partner): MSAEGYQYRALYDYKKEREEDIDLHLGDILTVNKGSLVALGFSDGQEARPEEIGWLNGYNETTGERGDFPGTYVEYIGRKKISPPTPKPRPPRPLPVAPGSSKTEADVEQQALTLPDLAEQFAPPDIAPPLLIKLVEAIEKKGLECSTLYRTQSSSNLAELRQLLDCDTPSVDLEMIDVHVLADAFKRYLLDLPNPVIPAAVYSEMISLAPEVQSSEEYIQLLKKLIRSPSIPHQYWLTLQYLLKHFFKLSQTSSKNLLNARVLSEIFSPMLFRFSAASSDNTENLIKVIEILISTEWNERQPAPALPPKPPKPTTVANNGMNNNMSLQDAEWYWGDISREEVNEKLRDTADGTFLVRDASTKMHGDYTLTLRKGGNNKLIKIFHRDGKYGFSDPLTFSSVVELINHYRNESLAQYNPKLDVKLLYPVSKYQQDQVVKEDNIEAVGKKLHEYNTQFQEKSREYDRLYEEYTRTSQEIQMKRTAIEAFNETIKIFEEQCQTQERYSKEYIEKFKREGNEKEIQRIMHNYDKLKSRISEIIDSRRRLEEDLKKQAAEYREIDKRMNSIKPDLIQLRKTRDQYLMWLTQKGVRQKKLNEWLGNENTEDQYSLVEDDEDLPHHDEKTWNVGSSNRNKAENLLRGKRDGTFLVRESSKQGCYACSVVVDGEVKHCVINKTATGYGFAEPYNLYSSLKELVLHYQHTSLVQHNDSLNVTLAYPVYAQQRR

As to `COc1ncc(-c2ccc3ncc(OCCN4CCN(C)CC4)c(=O)n3c2)cc1NS(=O)(=O)c1sc(C)nc1C` [Compound 4], the figures for the IC50 with MCF-7 cells and at PI3K (p110α) were 50 to 100 nM and at most 1 nM, respectively.
Regarding `COc1ncc(-c2ccc3ncc(OCCN4CC5CC4CN5C)c(=O)n3c2)cc1NS(=O)(=O)c1sc(C)nc1C` (centres unmarked) [Compound 5], the values for the IC50 in the assay with MCF-7 cells and at PI3K (p110α) were over 250 nM and at most 1 nM, respectively.
Regarding `COc1ncc(-c2ccc3ncc(OCCN4CCCC4=O)c(=O)n3c2)cc1NS(=O)(=O)c1sc(C)nc1C` [Compound 21, N-(2-Methoxy-5-(4-oxo-3-(2-(2-oxopyrrolidin-1-yl)ethoxy)-4H-pyrido[1,2-a]pyrimidin-7-yl)pyridin-3-yl)-2,4-dimethylthiazole-5-sulfonamide], the IC50 in the assay on MCF-7 cells is at most 50 nM; at PI3K (p110α), at most 1 nM.
Turning to `COc1ncc(-c2ccc3ncc(OCCNC(C)=O)c(=O)n3c2)cc1NS(=O)(=O)c1ccc(F)cc1Cl` [Compound 22], the figures for the IC50 in the assay on MCF-7 cells and on PI3K (p110α) were 100 to 250 nM and at most 1 nM, respectively.
With `COc1ncc(-c2ccc3ncc(OCCNS(C)(=O)=O)c(=O)n3c2)cc1NS(=O)(=O)c1ccc(F)cc1Cl` [Compound 23], the results for the IC50 in the assay on MCF-7 cells and at PI3K (p110α) were 50 to 100 nM and at most 1 nM, respectively.
Turning to `COc1ncc(-c2ccc3ncc(OCC4CN(C)C4)c(=O)n3c2)cc1NS(=O)(=O)c1ccc(F)cc1Cl` [Compound 28], the IC50 in the assay on MCF-7 cells is at most 50 nM.
As to `COc1ncc(-c2ccc3ncc(OCC4(C)CNC4)c(=O)n3c2)cc1NS(=O)(=O)c1ccc(F)cc1Cl` [Compound 29], the IC50 with MCF-7 cells is over 250 nM.
For the compound `COc1ncc(-c2ccc3ncc(OC4CNC4)c(=O)n3c2)cc1NS(=O)(=O)c1ccc(F)cc1Cl` [Compound 30], the IC50 in the assay with MCF-7 cells was over 250 nM.
With `COc1ncc(-c2ccc3ncc(OCC4CCCN4)c(=O)n3c2)cc1NS(=O)(=O)c1sc(C)nc1C` (centres unmarked) [Compound 33], the values for the IC50 in the assay with MCF-7 cells and on PI3K (p110α) were over 250 nM and at most 1 nM, respectively.
In the case of `COc1ncc(-c2ccc3ncc(OCC4CCCN4C)c(=O)n3c2)cc1NS(=O)(=O)c1sc(C)nc1C` (centres unmarked) [Compound 34], the IC50 in the assay with MCF-7 cells was 50 to 100 nM; on PI3K (p110α), at most 1 nM.
As to `COc1ncc(-c2ccc3ncc(OCCn4ccc(C)n4)c(=O)n3c2)cc1NS(=O)(=O)c1ccc(F)cc1F` [Compound 38], at PI3K (p110α), the IC50 is 1 to 50 nM.
As to `COc1ncc(-c2ccc3ncc(OCCn4ccc(C(F)(F)F)n4)c(=O)n3c2)cc1NS(=O)(=O)c1ccc(F)cc1F` [Compound 39], at PI3K (p110α), the IC50 lay within 1 to 50 nM.
Take `COc1ncc(-c2ccc3ncc(OCCn4nccc4C)c(=O)n3c2)cc1NS(=O)(=O)c1ccc(F)cc1F` [Compound 40]: the IC50 at PI3K (p110α) was in the range of 1 to 50 nM.
In the case of `COc1ncc(-c2ccc3ncc(CN4CCOCC4)c(=O)n3c2)cc1NS(=O)(=O)c1sc(C)nc1C` [Compound 51, N-(2-Methoxy-5-(3-(morpholinomethyl)-4-oxo-4H-pyrido[1,2-a]pyrimidin-7-yl)pyridin-3-yl)-2,4-dimethylthiazole-5-sulfonamide], the IC50 at PI3K (p110α) was 1 to 50 nM.
With `COc1ncc(-c2ccc3ncc(CN(C)C)c(=O)n3c2)cc1NS(=O)(=O)c1sc(C)nc1C` [Compound 52], the IC50 at PI3K (p110α) was 1 to 50 nM.
`COc1ncc(-c2ccc3ncc(OCCN4CCOCC4)c(=O)n3c2)cc1NC(=O)Nc1sc(C)nc1C` [Compound 54]: the IC50 on PI3K (p110α) was over 200 nM.
`COc1ncc(-c2ccc3ncc(OCCN4CCOCC4)c(=O)n3c2)cc1NC(=O)c1sc(C)nc1C` [Compound 56, N-(2-Methoxy-5-(3-(2-morpholinoethoxy)-4-oxo-4H-pyrido[1,2-a]pyrimidin-7-yl)pyridin-3-yl)-2,4-dimethylthiazole-5-carboxamide]: the IC50 on PI3K (p110α) is over 200 nM.
For `COc1ncc(-c2ccc3ncc(OCCN4CCOCC4)c(=O)n3c2)cc1S(=O)(=O)Nc1sc(C)nc1C` [Compound 58, N-(2,4-dimethylthiazol-5-yl)-2-methoxy-5-(3-(2-morpholinoethoxy)-4-oxo-4H-4H-pyrido[1,2-a]pyrimidin-7-yl)pyridine-3-sulfonamide], on PI3K (p110α), the IC50 was over 200 nM.
Take `COc1ncc(-c2ccc3ncc(OCCN4CCS(=O)(=O)CC4)c(=O)n3c2)cc1NS(=O)(=O)c1sc(C)nc1C` [Compound 61]: the IC50 on PI3K (p110α) is at most 1 nM.
For the compound `COc1ncc(-c2ccc3ncc(OCCN4CCOCC4)c(=O)n3c2)cc1NS(=O)(=O)c1ccc(F)c(F)c1` [Compound 62], the figures for the IC50 in the assay with MCF-7 cells and at PI3K (p110α) were 100 to 250 nM and at most 1 nM, respectively.
With `COc1ncc(-c2ccc3ncc(OCCN4CCOCC4)c(=O)n3c2)cc1NS(=O)(=O)c1c(Cl)cccc1Cl` [Compound 63], the IC50 is at most 50 nM in the assay on MCF-7 cells and at most 1 nM at PI3K (p110α).
Turning to `COc1ncc(-c2ccc3ncc(OCCN4CCOCC4)c(=O)n3c2)cc1NS(=O)(=O)c1c(F)cc(F)cc1Cl` [Compound 64], the IC50 at PI3K (p110α) was at most 1 nM.
As to `COc1ncc(-c2ccc3ncc(OCCN4CCOCC4=O)c(=O)n3c2)cc1NS(=O)(=O)c1ccc(F)cc1Cl` [Compound 65], the figures for the IC50 in the assay on MCF-7 cells and at PI3K (p110α) were at most 50 nM and at most 1 nM, respectively.
Consider `COc1ncc(-c2ccc3ncc(OCC(C)N4CCOCC4)c(=O)n3c2)cc1NS(=O)(=O)c1ccc(F)cc1Cl` (centres unmarked) [Compound 66], for which the IC50 in the assay with MCF-7 cells was at most 50 nM; at PI3K (p110α), 1 to 50 nM.
As for `COc1ncc(-c2ccc3ncc(OC(C)CN4CCOCC4)c(=O)n3c2)cc1NS(=O)(=O)c1ccc(F)cc1Cl` (centres unmarked) [Compound 67], the IC50 at PI3K (p110α) was 1 to 50 nM.
As for `COc1ncc(-c2ccc3ncc(OCCN4CCN(C)CC4)c(=O)n3c2)cc1NS(=O)(=O)c1ccc(F)cc1Cl` [Compound 68], the IC50 is at most 50 nM in the assay on MCF-7 cells and at most 1 nM on PI3K (p110α).
Turning to `COc1ncc(-c2ccc3ncc(OCCN4CCN(CC(F)(F)F)CC4)c(=O)n3c2)cc1NS(=O)(=O)c1ccc(F)cc1Cl` [Compound 69], the IC50 with MCF-7 cells is at most 50 nM.
`COc1ncc(-c2ccc3ncc(OCC4CCN(C)CC4)c(=O)n3c2)cc1NS(=O)(=O)c1ccc(F)cc1Cl` [Compound 71]: at PI3K (p110α), the IC50 was 1 to 50 nM.
Regarding `COc1ncc(-c2ccc3ncc(OCCCN4CCN(C)CC4)c(=O)n3c2)cc1NS(=O)(=O)c1ccc(F)cc1Cl` [Compound 72], the IC50 in the assay with MCF-7 cells is at most 50 nM.
Turning to `COc1ncc(-c2ccc3ncc(OC4CN(C)C4)c(=O)n3c2)cc1NS(=O)(=O)c1ccc(F)cc1Cl` [Compound 73], on PI3K (p110α), the IC50 is 1 to 50 nM.
As for `COc1ncc(-c2ccc3ncc(OC4CCN(C)CC4)c(=O)n3c2)cc1NS(=O)(=O)c1ccc(F)cc1Cl` [Compound 74], the IC50 on PI3K (p110α) fell in the range of 1 to 50 nM.
Turning to `COc1ncc(-c2ccc3ncc(OCC4CCNCC4)c(=O)n3c2)cc1NS(=O)(=O)c1ccc(F)cc1Cl` [Compound 76], the IC50 with MCF-7 cells is over 250 nM.
Consider `COc1ncc(-c2ccc3ncc(OCCN(CCO)CCO)c(=O)n3c2)cc1NS(=O)(=O)c1ccc(F)cc1Cl` [Compound 80], for which, at PI3K (p110α), the IC50 is at most 1 nM.
In the case of `COc1ncc(-c2ccc3ncc(OCC4CC(F)(F)CN4)c(=O)n3c2)cc1NS(=O)(=O)c1ccc(F)cc1Cl` (centres unmarked) [Compound 83], the IC50 at PI3K (p110α) is 1 to 50 nM.
In the case of `COc1ncc(-c2ccc3ncc(OCCN(CCO)CC(F)(F)F)c(=O)n3c2)cc1NS(=O)(=O)c1ccc(F)cc1Cl` [Compound 84], on PI3K (p110α), the IC50 lay within 1 to 50 nM.
Consider `COc1ncc(-c2ccc3ncc(OCCN4CCOCC4C(N)=O)c(=O)n3c2)cc1NS(=O)(=O)c1ccc(F)cc1Cl` (centres unmarked) [Compound 86], for which the IC50 at PI3K (p110α) is at most 1 nM.
For `COc1ncc(-c2ccc3ncc(OCCN4C5CCC4COC5)c(=O)n3c2)cc1NS(=O)(=O)c1ccc(F)cc1Cl` [Compound 87], the IC50 on PI3K (p110α) was at most 1 nM.
As to `COc1ncc(-c2ccc3ncc(OCCN4C[C@@H](C)O[C@@H](C)C4)c(=O)n3c2)cc1NS(=O)(=O)c1ccc(F)cc1Cl` [Compound 91], the IC50 in the assay with MCF-7 cells was at most 50 nM.
Regarding `COc1ncc(-c2ccc3ncc(OCCNCC(F)(F)F)c(=O)n3c2)cc1NS(=O)(=O)c1ccc(F)cc1Cl` [Compound 92], the IC50 at PI3K (p110α) is at most 1 nM.
Same read-out and setting: with `COc1ncc(-c2ccc3ncc(OCCN4CCN(S(C)(=O)=O)CC4)c(=O)n3c2)cc1NS(=O)(=O)c1ccc(F)cc1Cl` [Compound 93] the figure was at most 1 nM.
For `COc1ncc(-c2ccc3ncc(OCCN4CCNC(=O)C4)c(=O)n3c2)cc1NS(=O)(=O)c1ccc(F)cc1Cl` [Compound 94], the IC50 with MCF-7 cells was over 250 nM.

For the origin of these results see US9856256B2, “Pyridino[1,2-A]pyrimidone analogue used as P13K inhibitor” (CHIA TAI TIANQING PHARMACEUTICAL GROUP CO., LTD., priority 2014, dated 2018).
